Measured values as given in patent US4232035A, “Carbamate pesticidal compounds compositions and methods of use” (priority 1975, dated 1980).

Tests used:
Format in all cases: in vivo
[1] = test system: two-spotted mite (Tetranychus urticae Koch); assay: Mite Foliage Spray Test; parameters: key: A: excellent control; B: partial control; C: no control; settings: 500 parts per million foliage spray; six days
Experimental: (§1) Suspensions of the test compounds were prepared by dissolving one gram of compound in 50 milliliters of acetone in which had been dissolved 0.1 gram (10 percent of the weight of compound) of an alkylphenoxy polyethoxyethanol surfactant, as an emulsifying or dispersing agent. The resulting solution was mixed into 150 milliliters of water to give roughly 200 milliliters of a suspension containing the compound in finely divided form. The thus-prepared stock suspension contained 0.5 percent by weight of compound. The test concentrations in parts per million by weight employed in the tests described hereinbelow were obtained by appropriate dilutions of the stock suspension with water. The test procedures were as follows:
Adults and nymphal stages of the two-spotted mite (Tetranychus urticae Koch), reared on Tendergreen bean plants at 80±5 percent relative humidity, were the test organisms. Infested leaves from a stock culture were placed on the primary leaves of two bean plants six to eight inches in height, growing in a two-and-a-half inch clay pot. 150-200 Mites, a sufficient number for testing, transferred from the excised leaves to the fresh plants in a period of twenty four hours. Following the twenty four hour transfer period, the excised leaves were removed from the infested plants. The test compounds were formulated by diluting the stock suspension with water to give a suspension containing 500 parts of test compound per million parts of final formulation. The potted plants (one pot per compound) were placed on a revolving turntable and sprayed with 100-110 milliliters of test compound formulation by use of a DeVilbiss spray gun set at 40 psig. air pressure. This application, which lasted 25 seconds, was sufficient to wet the plants to run-off. As a control, 100-110 milliliters of a water solution containing acetone and emulsifier in the same concentrations as the test compound formulation, but containing no test compound, were also sprayed on infested plants. The sprayed plants were held at 80±5 percent relative humidity for six days, after which a mortality count of motile forms was made. Microscopic examination for motile forms was made on the leaves of the test plants. Any individual which was capable of locomotion upon prodding was considered living.

[2] = test system: bean aphid (Aphis fabae Scop.); assay: Bean Aphid Foliage Spray Test; parameters: key: A: excellent control; B: partial control; C: no control; settings: 500 parts per million foliage spray; 24 hour holding period
Experimental: as §1
Adults and nymphal stages of the bean aphid (Aphis fabae Scop.) reared on potted dwarf nasturtium plants at 65°-70° F. and 50-70 percent relative humidity, constituted the test insects. For testing purposes, the number of aphids per pot was standardized to 100-150 by trimming plants containing excess aphids.
The test compounds were formulated by diluting the stock suspension with water to give a suspension containing 500 parts of test compound per million parts of final formulation.
The potted plants (one pot per compound tested) infested with 100-150 aphids, were placed on a revolving turntable and sprayed with 100-110 milliliters of test compound formulation by use of a DeVilbiss spray gun set at 40 psig. air pressure. This application, which lasted 25 seconds, was sufficient to wet the plants to run-off. As a control, 100-110 milliliters of a water-acetone-emulsifier solution containing no test compound were also sprayed on infested plants. After spraying, the pots were placed on their sides on a sheet of white standard mimeograph paper which had been previously ruled to facilitate counting. Temperature and humidity in the test room during the 24 hour holding period were 65°-70° F. and 50-70 percent, respectively. Aphids which fell onto the paper and were unable to remain standing after being uprighted were considered dead. Aphids remaining on the plants were observed closely for movement and those which were unable to move the length of the body upon stimulation by prodding were considered dead. Percent mortality was recorded for various concentration levels.

[3] = test system: Mexican bean beetle (Epilachna varivestis, Muls.); assay: Mexican Bean Beetle Leaf Spray Test; parameters: key: A: excellent control; B: partial control; C: no control; settings: 500 parts per million leaf spray; fourth instar larvae; three days
Experimental: as §1
Fourth instar larvae of the Mexican bean beetle (Epilachna varivestis, Muls.), reared on Tendergreen bean plants at a temperature of 80°±5° F. and 50±5 percent relative humidity, were the test insects.
The test compounds were formulated by diluting the stock suspension with water to give a suspension containing 500 parts of test compound per million parts of final formulation. Potted Tendergreen bean plants of standard height and age were placed on a revolving turntable and sprayed with 100-110 milliliters of test compound formulation by use of a DeVilbiss spray gun set at 10 psig air pressure. This application, which lasted 25 seconds, was sufficient to wet plants to run-off. As a control, 100-110 milliliters of a water-acetone-emulsifier solution containing no test compound were also sprayed on infested plants. When dry, the paired leaves were separated and each was placed in a 9 centimeter Petri dish lined with moistened filter paper. Five randomly selected larvae were introduced into each dish, and the dishes were closed. The closed dishes were labeled and held at a temperature of 80°±5° F. for three days. Although the larvae could easily consume the leaf within 24 to 48 hours, no more food was added. Larvae which were unable to move the length of the body, even upon stimulation, were considered dead.

[4] = test system: house flies (Musca domestica, L.); assay: Fly Bait Test; parameters: key: A: excellent control; B: partial control; C: no control; settings: 500 parts per million bait in sugar solution; twenty four hours
Experimental: as §1
Four to six day old adult house flies (Musca domestica, L.) reared according to the specifications of the Chemical Specialties Manufacturing Association (Blue Book, McNair-Dorland Co., N.Y. 1954; pages 243-244, 261) under controlled conditions of 80°±5° F. and 50±5 percent relative humidity, were the test insects. The flies were immobilized by anesthetizing with carbon dioxide and twenty five immobilized individuals, males and females, were transferred to a cage consisting of a standard food strainer about five inches in diameter which was inverted over a wrapping-paper-covered surface. The test compounds were formulated by diluting the stock suspension with a 10 percent (by weight) sugar solution to give a suspension containing 500 parts of test compound per million parts of final formulation, by weight. Ten milliliters of the test formulation were added to a souffle cup containing a one-inch square of an absorbent cotton pad. This bait cup was introduced and centered on the blotting paper under the food strainer prior to admitting the anesthetized flies. The caged flies were allowed to feed on the bait for twenty four hours, at a temperature of 80°±5° F. and the relative humidity of 50±5 percent.

[5] = test system: southern armyworm (Prodenia eridania, (Cram.)); assay: Southern Armyworm Leaf Spray Test; parameters: key: A: excellent control; B: partial control; C: no control; settings: 500 parts per million leaf spray; three days
Experimental: as §1
Larvae of the southern armyworm (Prodenia eridania, (Cram.)), reared on Tendergreen bean plants at a temperature of 80°±5° F. and a relative humidity of 50±5 percent, constituted the test insects.
The test compounds were formulated by diluting the stock suspension with water to give a suspension containing 500 parts of test compound per million parts of final formulation. Potted Tendergreen bean plants of standard height and age were placed on a revolving turntable and sprayed with 100-110 milliliters of test compound formulation by use of a DeVilbiss spray gun set at 10 psig air pressure. This application, which lasted 25 seconds, was sufficient to wet plants to run-off. As a control, 100-110 milliliters of a water-acetone-emulsifier solution containing no test compound were also sprayed on infested plants. When dry, the paired leaves were separated and each one was placed in a 9 centimeter Petri dish lined with moistened filter paper. Five randomly selected larvae were introduced into each dish and the dishes were closed. The closed dishes were labeled and held at 80°-85° F. for three days. Although the larvae could easily consume the whole leaf within twenty-four hours, no more food was added. Larvae which were unable to move the length of the body, even upon stimulation by prodding, were considered dead. Percent mortality was recorded for various concentration levels.

[6] = test system: root-knot nematode (Meloidogyne incognita var. acrita); assay: Nematode Test; parameters: key: 1: severe galling; equal to untreated control; 2: moderate galling; 3: light galling; 4: very light galling; 5: no galling; settings: 10 ml of 500 parts per million formulation per jar of soil; cucumber indicator crop, approximately three weeks
Experimental: as §1
Infective migratory larvae of the root-knot nematode, (Meloidogyne incognita var. acrita) were reared in the greenhouse on roots of Rutgers variety tomato plant. Infected tomato plants were removed from the culture and the roots were chopped very finely. A small amount of inoculum from the roots was added to pint Mason jars containing approximately 180 cc of soil. The jars containing the inoculum and soil were capped and incubated for one week at room temperature. During this period eggs of the nematode hatched and the larvae forms migrated into the soil.
The test compounds were formulated by diluting the stock suspension with water to give a suspension containing 500 parts of test compound per million parts of final formulation. 10 milliliters of the test formulation was added to each of two jars for each dosage treated. As a control 10 milliliters of a water-acetone-emulsifier solution containing no test compound was also added to jars containing nematode larvae. The jars were capped and the contents thoroughly mixed on a kale mill for five minutes. The jars remained capped at room temperature for a period of 48 hours and the contents were then transferred to 3 inch pots. Subsequently, the pots were seeded to cucumber as an indicator crop and placed in the green house where they were cared for in the normal fashion for growing potted cucumber for approximately three weeks. These cucumber plants were then removed from the pots, the soil washed from the roots and the amount of galling visually rated.

## CSSN(C)C(=O)ON=C1SCOC1C (stereo not drawn)
[1]
  Mite, pesticidal activity rating: A
[2]
  Aphid, pesticidal activity rating: A
[3]
  M. Bean Beetle, pesticidal activity rating: A
[4]
  H. Fly, pesticidal activity rating: A
[5]
  S. Armyworm, pesticidal activity rating: A
[6]
  Nematodes, nematocidal toxicity rating (galling): 1
